In one series the test system is PDAC cancer stem cells. Description: Sphere formation (self-renewal) of PDAC cancer stem cells. It counts as cell-based. The conditions noted are these: for sphere formation capacity (self-renewal): PDAC cells pre-treated twice with 100 and 250 μM, treated again on day 4, against control cultures. The protocol: On one hand, the inventors analyzed if complex 2 may increase c-MYC expression in pancreatic CSCs, and on the other hand, if the increase in c-MYC expression would negatively affect the CSC phenotype, for example, CSC self-renewal capacity. […] After having achieved a substantial increase in c-MYC expression, it was then analyzed if the CSC self-renewal capacity was affected. To that end, briefly the PDAC cells were pre-treated twice with complex 2 (RuH2O) at a concentration of 100 and 250 μM before establishing sphere cultures in […] as described in Cioffi M (Cioffi M et al. 2015 Gut 12: 1936-1948). The spheres were again treated on day 4 after sphere formation.
It was then evaluated if ruthenium complex 2 may negatively affect CSC phenotypes, such as self-renewal and tumorigenicity. […] During these 7 days, the samples were treated again with 250 μM of RuH2O on days 1, 3, and 5 after initiation of the spheres. […] The CSC spheres were smaller and less abundant in the RuH2O group.
(§1) The trypsinized cells were then: 1) placed in a plate at a low confluence to evaluate their clonogenicity (FIG. 25); 2) repeatedly cultured in ultra-low adherent plates in serum-free DMEM/F12 supplemented with B27 for intervals of 7 days to evaluate sphere formation capacity over multiple generations (FIG. 26); and 3) subcutaneously injected into NOD-SCID mice to check their tumorigenicity as described above (FIG. 27).

The test system of another series is Panc185 cells. In words: Tumorigenicity of pretreated PDAC cells injected subcutaneously into NOD-SCID mice. It counts as in vivo. Here is the method:
FIG. 22. Effects of RuH2O on PDAC sphere formation. (A) Work sequence of the experiment for evaluating the effect of RuH2O in PDAC CSC (B) Light micrographs of spheres derived from Panc185 and PancA6L cells after 10 days of treatment with 250 μM of RuH2O FIG. 23. Effects of RuH2O on PDAC tumorigenicity in vivo. Panc185 cells were pretreated with RuH2O before subcutaneous injection into NOD-SCID (non-obese diabetic, severe combined immunodeficiency) mice. Tumors were extracted 12 weeks after injection and analyzed. A) Photographs of the tumors extracted from NOD-SCID mice 12 weeks after being injected with 10^4 or 10^3 Panc185 cells and pretreated with control (CTL) or 250 μM of RuH2O. (B) Summary of the numbers of tumors detected per injection with 10^4 or 10^3 Panc185 cells and pretreated with control (CTL) or 250 μM of RuH2O. (C) Weights of the tumors extracted from NOD-SCID mice 12 weeks after being injected with 10^4 or 10^3 Panc185 cells and pretreated with control (CTL) or 250 μM of RuH2O.
FIG. 27. Tumorigenicity of PDAC cells after treatment with RuH2O. PDAC cells were treated with the indicated concentrations of RuH2O for 48 hours and then injected subcutaneously into NOD-SCID mice. Tumors were extracted 7 or 11 weeks after injection.
The spheres were then disassociated and equal numbers of control-treated cells and RuH2O-treated cells were injected subcutaneously into immunocompromised NOD-SCID mice to evaluate the tumorigenicity thereof. Twelve weeks after the injection, the tumors were extracted and weighed. […] While 4 out of 4 injections and 5 out of 6 injections with 10,000 and 1,000 control-treated cells, respectively, led to tumors, only 1 out of every 6 injections with 10,000 RuH2O-treated cells led to tumor. […] Furthermore, the only tumor that developed in the mouse injected with 10,000 RuH2O-treated cells weighed 53 times less than the tumors formed in control-treated mice (0.0058 g with respect to 0.3118 g).
as §1
Finally, the tumorigenicity of sphere-rich CSCs was studied as described above.

For series [1], the system named is guanosine monophosphate (GMP). Description: GMP binding (metallation) assay, HPLC. The conditions noted are these: complex 250 μM, GMP 750 μM, 10 mM phosphate buffer pH 7.5, 100 mM NaCl.
Experimental: High-performance liquid chromatography (HPLC) was carried out using Agilent 1100 liquid chromatography-mass spectrometer equipment. Analytical HPLC was carried out using a Phenomenex Luna-C18 reversed-phase analytical column (10×250 mm, 5 μm), 1 mL/min, with different gradients (see below). […] Electrospray ionization mass spectrometry (ESI/MS) was performed with an Agilent 1100 Series LC/MSD VL G1956A model in positive polarity mode.
First, guanosine monophosphate (GMP) metallating capacity of complex 1 was studied. To that end, complex 1 (250 μM) was mixed with 3 equivalents of GMP (750 μM) in 10 mM phosphate buffer (pH=7.5) and 100 mM NaCl.
To confirm that GMP metallation is completely orthogonal, competitive experiments were carried out with the other three nucleotides (AMP, CMP, and TMP). Specifically, complex 1 (250 μM) was mixed with GMP (3 equiv, 750 μM), AMP (3 equiv, 750 μM), TMP (3 equiv, 750 μM), and CMP (3 equiv, 750 μM) in 10 mM phosphate buffer (pH=7.5) and 100 mM NaCl.
To that end, complex 1 (250 μM) was mixed with GMP (3 equiv, 750 μM) in the presence of H-Lys(Boc)-OH (3 equiv, 750 μM) or Ac-Cys-OH (3 equiv, 750 μM) in 10 mM phosphate buffer (pH=7.5) and 100 mM NaCl.
Complex 4 (250 μM) was mixed with 3 equivalents of GMP (750 μM) in 10 mM phosphate buffer (pH=7.5) and 100 mM NaCl.
For series [2], the system named is Panc185 and PancA6L cells. In words: Clonogenicity of PDAC cells. The series is classed as cell-based. The conditions noted are these: adherent cultures treated 48 hours with 100 or 250 μM, 10 days in culture. Here is the method:
FIG. 25. Clonogenicity of PDAC cells after treatment with RuH2O. (Top) Light micrographs of Panc185 and PancA6L colonies formed after 10 days in culture. The colonies were visualized with crystal violet staining. (Bottom) Colony efficiency quantification. The colonies were lysed in PBS-1% Triton-X and color intensity was measured with a plate reader.
as §1

The test system of series [3] is Panc185 and PancA6L cells. Description: ToxiLight BioAssay cytotoxicity (adenylate kinase release). It counts as cell-based. Here is the method:
FIG. 20. Cytotoxic effects of RuH2O on PDAC cultures. Relative cell death was determined in adherent cultures (low in CSC) and spheres (rich in CSC) of Panc185 (A) and PancA6L (B) at 24, 48, and 72 hours after treatment with the indicated doses of RuH2O.
It was then studied if the […] c-MYC expression and the phenotype and transcriptional changes observed were cytotoxic. For this analysis, the ToxiLight™ BioAssay kit, a bioluminescent, non-destructive cytolysis assay kit designed for measuring the adenylate kinase (AK) enzyme released from damaged cells (FIG. 20), was used. Adherent cultures (low in CSC) and cultured spheres (rich in CSC) were treated with increasing doses of RuH2O and cytotoxicity was measured 24, 48, and 72 hours after treatment. In adherent cultures and in both assayed cell lines, toxicity was only observed at 72 hours (3-fold increase in dead cells) when the cells were treated with 250 μM of RuH2O.

The subject of series [4] is Panc185 and PancA6L cells. In words: qRT-PCR gene expression in adherent PDAC cultures. It counts as cell-based. The settings on record: 100 μM, 24 hours. The protocol:
FIG. 19. […] The RNA of Panc185 and PancA6L cells was extracted 24 hours after treatment with 100 μM of RuH2O. qRT-PCR analysis of Oct3/4, Sox2, and PGC1alpha was performed in cDNA generated from treated samples. […] Panc185 cells are also interchangeably referred to herein as 185 and 185 scd and Pacn6AL cells are also interchangeably referred to herein as A6L.
Furthermore, a reduction in PGC1alpha expression, a known c-MYC target, and a reduction in pluripotency-associated genes Oct3/4 and Sox2 were observed after treatment with 100 μM of RuH2O for 24 hours (FIG. 19).

[Ru(terpy) (bpy)H2O]^2+ [complex 2]: the “sphere formation capacity (self-renewal)” value in the series on PDAC cancer stem cells is “significant, dose-dependent reduction in the sphere formation capacity”. Also, the “sphere formation capacity (self-renewal)” value in the series on PDAC cancer stem cells (listed as Complex 2) is on record as “reduces the self-renewal capacity”. The sphere formation capacity entry in the series with PDAC cancer stem cells (PDAC cells, 250 μM for 24 hours, again on days 1, 3 and 5, against control) was “significant reduction in the sphere formation capacity”. Moreover, the “self-regeneration (sphere formation over multiple generations)” value in the series with PDAC cancer stem cells (adherent cultures treated 48 hours with 100 or 250 μM) was “prevents clonogenicity, self-regeneration, and tumorigenicity”. The tumor formation entry in the series with Panc185 cells (1,000 sphere-derived cells pretreated with 250 μM, NOD-SCID mice, 12 weeks) is “Tumors did not form”. Besides, the “tumor weight, times less than control-treated” value in the series with Panc185 cells (10,000 pretreated cells, 12 weeks) is listed as 53 times. Moreover, in the series with Panc185 cells (10,000 pretreated cells, 12 weeks, the only tumor), the tumor weight amounted to 0.0058 g. Moreover, the tumorigenicity entry with Panc185 cells (adherent cultures treated 48 hours, injected subcutaneously into NOD-SCID mice, 7 or 11 weeks) is “prevents clonogenicity, self-regeneration, and tumorigenicity”. Moreover, the “GMP metallation, conversion to monoadduct 3” value in series [1] (30 min at room temperature in the dark) came to 63%. In addition, in series [1] (30 min irradiation at 455 nm), the “GMP metallation, conversion to monoadduct 3” value is reported as “complete conversion”. Also, the clonogenicity entry in series [2] is “prevents clonogenicity, self-regeneration, and tumorigenicity”. Moreover, the “increase in dead cells” value in series [3] (adherent cultures (low in CSC), both cell lines, 250 μM, 72 hours) amounted to 3 fold. Moreover, the “toxicity (ToxiLight)” value in series [3] (adherent cultures (low in CSC), single dose 100 or 250 μM, 48 hours) is “no toxicity was observed”. Moreover, in series [3] (spherical cultures (rich in CSC), 100 μM), the cell death result is listed as “induced cell death”. Besides, in series [4], the Oct3/4 expression entry is on record as “reduction”, the PGC1alpha expression entry is “reduction” and the Sox2 expression result is “reduction”.

The values are drawn from US11471467B2, “Ruthenium complexes for treating cancer which comprises cancer stem cells” (UNIVERSIDADE DE SANTIAGO DE COMPOSTELA, priority 2016, dated 2022).
